Ends that are not written are not given here. Peptide text beside a SMILES is read from it. * marks the point of attachment. FITC = O=C1OC2(c3ccc(O)cc3Oc3cc(O)ccc32)c2ccc(NC(=S)*)cc21; Palmitoyl = CCCCCCCCCCCCCCCC(=O)*; Ahx = NCCCCCC(=O)O
Tests used:
[1] = Cytotoxicity assay (WST-1, microscopy) in HaCaT cells; assay type: cell-based, human; conditions: human, HaCaT cells (keratinocytes); for viability at 24 h, 25 µM / viability at 24 h, 50 µM / viability at 24 h, 100 µM / viability at 24 h, 200 µM: HaCaT, read-out: survival rate (WST-1); for viability at 24 h, 25 µM: 25 μM peptide; for viability at 24 h, 50 µM: 50 μM peptide; for viability at 24 h, 100 µM: 100 μM peptide; for viability at 24 h, 200 µM: 200 μM peptide; for viability at 24 h: at all concentrations (25-200 μM), read-out: survival rates of the HaCaT cells
Protocol: (§1) Cytotoxicity of the cell-penetrating multifunctional peptide according to Example 1 was checked. Specifically, HaCaT cells (human keratinocytes) were inoculated at a concentration of 1.5×10^4 cells/well into a 96-well plate and incubated for 24 hours. Then, the medium was removed, followed by washing once with PBS, and replaced with a serum-free medium. The cells were treated with Spep001 (SEQ ID NO: 1), Spep002 (SEQ ID NO: 8) or Spep003 (SEQ ID NO: 9) at a concentration of 0 μM, 25 μM, 50 μM, 100 μM or 200 μM and then further incubated for 24 hours. Herein, culture conditions were maintained at 37° C. with 5% CO2.
(§2) At the time of completion of further incubation, the appearance of the cells were imaged by a microscope, and the result thereof is shown in FIG. 2A(i) to FIG. 2A(xx).
(§3) Also, at the time of completion of incubation, a WST-1 assay (Water Soluble Tetrazolium salt-1, EZ-assay kit, DoGenBio) was conducted. Specifically, 100 μL of a WST-1 solution was added to the well of cells after the completion of further incubation and then incubated for 3 hours. Thereafter, the absorbance at 450 nm was measured using a microplate spectrophotometer (Multiskan™ GO, thermo), and the result thereof is shown in FIG. 2B and Table 2 below.
(§4) Herein, all the result values are expressed in mean±standard deviation. The analysis result of each item was statistically analyzed by a 2-way analysis of variance (ANOVA) test. A Bonferroni post-test was conducted at a P value of *p<0.05 and **p<0.01 only when the significance was determined by ANOVA test. GraphPad prism 5.0.1 (GraphPad Software Inc., San Diego, CA, USA) was used as a statistical software program.

[2] = Cytotoxicity assay (WST-1, microscopy) in HDF-N cells; assay type: cell-based, human; conditions: human, HDF-N cells (dermal fibroblasts, neonatal); for viability at 24 h, 25 µM / viability at 24 h, 50 µM / viability at 24 h, 100 µM / viability at 24 h, 200 µM: HDF-N, read-out: survival rate (WST-1); for viability at 24 h, 25 µM: 25 μM peptide; for viability at 24 h, 50 µM: 50 μM peptide; for viability at 24 h, 100 µM: 100 μM peptide; for viability at 24 h, 200 µM: 200 μM peptide; for viability at 24 h: at all concentrations (25-200 μM), read-out: survival rates of the HDF-N cells
Protocol: as §1, §3
(§5) The appearance of HDF-N (human dermal fibroblast-neonatal) cells were imaged by a microscope as in Example 3, and the result thereof is shown in FIG. 3A(i) to FIG. 3A(xx). However, the HDF-N cells were inoculated at a concentration of 1.0×10^4 cells/well into a 96-well plate.

HaCaT cells [3] = test: Cell penetration rate by flow cytometry; assay type: cell-based, human; conditions: 10 μM, 37° C., 1 hour
Protocol: (§6) HaCaT cells were inoculated at a concentration of 3×10^5 cells/well into a 6-well plate and incubated for 24 hours. Then, the cell culture medium was removed, followed by washing twice with HBSS, and replaced with an Opti-MEM medium. The cells were treated with 10 μM FITC-TAT, FITC-Spep001, FITC-Spep002 or FITC-Spep003 and incubated at 37° C. with 5% CO2 for 1 hour. […] Finally, the cells were treated with 1 mg/mL trypsin and thus separated into single cells, followed by centrifugation at 1,000 rpm for 5 minutes. The FITC fluorescence intensities of cell-penetrating peptides per living 10,000 cells were measured by performing flow cytometry (Navios Flow Cytometer by Beckman Coulter Life Sciences), and the result thereof is shown in FIG. 5A(i) to FIG. 5A(v) and FIG. 5B.

HaCaT cells [4] = test: Dependence of cell penetration on ATP (flow cytometry); assay type: cell-based, human; conditions: pre-treated with 2-DG and NaN3
Protocol: as §6
A test was conducted in the same conditions as those in Example 7 except that the cells were pre-treated with 2-DG (2-deoxyglucose, D6134, sigma) and NaN3 (sodium azide, 71289, sigma) one hour before treatment with FITC-TAT, FITC-Spep001, FITC-Spep002 or FITC-Spep003 to check the dependence of endocytosis on ATP. Then, the FITC fluorescence intensities of peptides penetrating into living cells were measured by flow cytometry as in Example 5, and the result thereof is shown in FIG. 7.

[5] = system: HaCaT cells (human keratinocytes); test: Cytotoxicity assay (WST-1, microscopy) in HaCaT cells; assay type: cell-based; conditions: for cytotoxicity: HaCaT cells; for change in the appearance of the cells (microscope): HaCaT, all concentrations
Protocol: as §1, §2, §3, §4

[6] = system: HDF-N (human dermal fibroblast-neonatal) cells; test: Cytotoxicity assay (WST-1, microscopy) in HDF-N cells; assay type: cell-based; conditions: for cytotoxicity: HDF-N cells; for change in the appearance of the cells (microscope): HDF-N, all concentrations
Protocol: as §1, §3, §5

[7] = Cytotoxicity assay of difunctional peptide (WST-1, microscopy); assay type: cell-based, human; conditions: human, HDF-N cells, HDF-N, read-out: cell proliferation rate / survival rate (WST-1); for viability at 24 h, 12.5 µM: 12.5 μM peptide; for viability at 24 h, 25 µM: 25 μM peptide; for viability at 24 h, 50 µM: 50 μM peptide; for viability at 24 h, 100 µM: 100 μM peptide
HDF-N = test: as above; assay type: cell-based, human; conditions: for change in the appearance of the cells (microscope): 12.5 μM to 100 μM
HDF-N cells = assay type: cell-based, human; conditions: for Cell viability(%): human, 24 h, 12.5 μM
Protocol: as §1, §3
HDF-N cells were treated with 12.5 μM KTTKS (SEQ ID NO: 5), Spep001-KTTKS (SEQ ID NO: 6) and pal-KTTKS which are peptides fabricated in Example 9. The appearance and proliferation rate of the cells were measured as in Example 3, and the results thereof are shown in FIG. 9A(i) to FIG. 9A(iv), FIG. 9B and Table 7 below.

Molecule	viability at 24 h, 25 µM [1] [%]	viability at 24 h, 50 µM [1] [%]	viability at 24 h, 100 µM [1] [%]	viability at 24 h, 200 µM [1] [%]	viability at 24 h, 25 µM [2] [%]	viability at 24 h, 50 µM [2] [%]	viability at 24 h, 100 µM [2] [%]	viability at 24 h, 200 µM [2] [%]	cell penetration rate (FITC-positive cell count) (HaCaT cells [3]) [%]	viability at 24 h [1] [%]	cytotoxicity [5]	change in the appearance of the cells (microscope) [5]	viability at 24 h [2] [%]	cytotoxicity [6]	change in the appearance of the cells (microscope) [6]	other results
N=C(N)NCCC[C@H](NC(=O)[C@H](CCCNC(=N)N)NC(=O)[C@H](CCCNC(=N)N)NC(=O)[C@H](CCC(N)=O)NC(=O)[C@H](CCCNC(=N)N)NC(=O)[C@H](CCCNC(=N)N)NC(=O)[C@H](CCCCN)NC(=O)[C@H](CCCCN)NC(=O)[C@H](CCCNC(=N)N)NC(=O)CNC(=O)[C@@H](N)Cc1ccc(O)cc1)C(=O)O [TAT, YGRKRRQRRR, reference compound]	102 ± 5.09	106.3 ± 1.05	106 ± 2.94	102 ± 2.15	106 ± 3.38	94.9 ± 4.22	103 ± 3.02	96.7 ± 5.03	–	–	–	–	–	–	–	–
FITC-Ahx-RKRWLRKPRP ({FITC-Ahx}-RKRWLRKPRP) [FITC-Spep003, Spep003 labelled with FITC at the N-terminal amine group]	–	–	–	–	–	–	–	–	7.8	–	–	–	–	–	–	cell penetration rate based on TAT-FITC with a cell penetration rate of 100% (HaCaT cells [3]): 28.8%; FITC fluorescence intensity under ATP deficiency (HaCaT cells [4]): decreased
KRRWRKIPKR [Spep002, KRRWRKIPKR]	104.7 ± 0.17	103 ± 1.97	101 ± 1.97	99.01 ± 0.62	102 ± 4.11	104.6 ± 0.75	108 ± 1.66	101 ± 2.44	–	≥ 90	do not express cytotoxicity	no change in the appearance	≥ 90	do not express cytotoxicity	no change in the appearance	–
O=C1OC2(c3ccc(O)cc3Oc3cc(O)ccc32)c2ccc(N=C=S)cc21 [FITC, Fluorescein-5-Isothiocyanate, reference compound]	–	–	–	–	–	–	–	–	0.4	–	–	–	–	–	–	–
KTTKSRLRLRQRRRR [KTTKS-Spep001, KTTKSRLRLRQRRRR]	–	–	–	–	–	–	–	–	–	–	–	–	–	–	–	viability at 24 h, 12.5 µM [7]: 111 ± 8.6%; viability at 24 h, 25 µM [7]: 120 ± 4.46%; viability at 24 h, 50 µM [7]: 107 ± 7.61%; viability at 24 h, 100 µM [7]: 94.1 ± 3.2%; change in the appearance of the cells (microscope) (HDF-N): no change in the appearance; cell proliferation (in words) (HDF-N; compared to control (0 μM)): maintained at a level similar to that of a control
RLRLRQRRRR [Spep001, RLRLRQRRRR]	103 ± 1.62	103 ± 2.21	106 ± 2.23	110 ± 7.48	93.39 ± 0.66	101 ± 2.71	95 ± 1.53	94.5 ± 2.41	–	≥ 90	do not express cytotoxicity	no change in the appearance	≥ 90	do not express cytotoxicity	no change in the appearance	–
CCCCCCCCCCCCCCCC(=O)N[C@@H](CCCCN)C(=O)N[C@H](C(=O)N[C@H](C(=O)N[C@@H](CCCCN)C(=O)N[C@@H](CO)C(=O)O)[C@@H](C)O)[C@@H](C)O [Palmitoyl-KTTKS, Pal-KTTKS] (Palmitoyl-KTTKS-OH)	–	–	–	–	–	–	–	–	–	–	–	–	–	–	–	change in the appearance of the cells (microscope) (HDF-N cells): appearance of the cells treated with Pal-KTTKS was changed; Cell viability(%) (HDF-N cells): 109.22%
RKRWLRKPRP [Spep003, RKRWLRKPRP]	98.3 ± 4.45	98.6 ± 1.01	103 ± 0.6	99.9 ± 1.79	118 ± 5.3	104 ± 1.71	108 ± 3.07	113.5 ± 0.59	–	≥ 90	do not express cytotoxicity	no change in the appearance	≥ 90	do not express cytotoxicity	no change in the appearance	–
RLRLRQRRRRKTTKS [Spep001-KTTKS, RLRLRQRRRRKTTKS]	–	–	–	–	–	–	–	–	–	–	–	–	–	–	–	viability at 24 h, 12.5 µM [7]: 167 ± 13.4%; viability at 24 h, 25 µM [7]: 148 ± 8.42%; viability at 24 h, 50 µM [7]: 104 ± 3.16%; viability at 24 h, 100 µM [7]: 106 ± 11.4%; change in the appearance of the cells (microscope) (HDF-N): no change in the appearance; cell proliferation rate / survival rate (WST-1) (HDF-N; HDF-N, 12.5 μM peptide): 167.45±13.38%; change in the appearance of the cells (microscope) (HDF-N cells): no change in the appearance; Cell viability(%) (HDF-N cells): 215.58%
FITC-Ahx-KRRWRKIPKR ({FITC-Ahx}-KRRWRKIPKR) [FITC-Spep002, Spep002 labelled with FITC at the N-terminal amine group]	–	–	–	–	–	–	–	–	6.3	–	–	–	–	–	–	cell penetration rate based on TAT-FITC with a cell penetration rate of 100% (HaCaT cells [3]): 23.3%; FITC fluorescence intensity under ATP deficiency (HaCaT cells [4]): decreased

Source: patent US11951204B2, “Cell-penetrating peptides and composition including the same” (S-SKIN. CO., LTD., priority 2022, dated 2024)
